# Experimental data from ChEMBL document CHEMBL4002588, “2,4-Disubstituted quinazolines as amyloid-β aggregation inhibitors with dual cholinesterase inhibition and antioxidant properties: Development and structure-activity relationship (SAR) studies” (Eur J Med Chem, 2017).
# Activity calls are given as the source filed them. The calls are words filed in the database; no cut-off is given here.
# What was measured:
# [1] = biological target: T1, Amyloid-beta precursor protein (Homo sapiens, UniProt P05067); assay: Inhibition of HFIP-induced human recombinant amyloid beta (1 to 42 residues) aggregation expressed in Escherichia coli assessed as reduction in amyloid beta fibril load at 25 uM after 24 hrs by transmission electron microscopic method
# [2] = biological target: T1, Amyloid-beta precursor protein; assay: Inhibition of HFIP-induced human recombinant amyloid beta (1 to 40 residues) aggregation expressed in Escherichia coli at 25 uM measured over 24 hrs by ThT-based fluorescence spectroscopic method relative to control
# [3] = biological target: T1, Amyloid-beta precursor protein
# Description: Inhibition of HFIP-induced human recombinant amyloid beta (1 to 40 residues) aggregation expressed in Escherichia coli measured over 24 hrs by ThT-based fluorescence spectroscopic method
# [4] = biological target: T1, Amyloid-beta precursor protein; remark: listed apart in the source
# Description: Inhibition of HFIP-induced human recombinant amyloid beta (1 to 42 residues) aggregation expressed in Escherichia coli measured over 24 hrs by ThT-based fluorescence spectroscopic method
# [5] = biological target: T1, Amyloid-beta precursor protein; assay: Inhibition of HFIP-induced human recombinant amyloid beta (1 to 42 residues) aggregation expressed in Escherichia coli assessed as reduction in amyloid beta fibril load measured after 24 hrs by ThT fluorescence assay
# [6] = biological target: T1, Amyloid-beta precursor protein; assay: Inhibition of HFIP-induced human recombinant amyloid beta (1 to 42 residues) aggregation expressed in Escherichia coli at 25 uM measured over 24 hrs by ThT-based fluorescence spectroscopic method relative to control
# Acetylcholinesterase = Acetylcholinesterase (Homo sapiens, UniProt P22303)
# Description: Inhibition of human AChE using acetylthiocholine iodide as substrate preincubated for 5 mins followed by substrate addition measured for 60 to 300 secs by Ellman's method
# Cholinesterase [7] = biological target: T2, Cholinesterase (Homo sapiens, UniProt P06276)
# Description: Inhibition of human BuChE using S-butyrylthiocholine iodide as substrate preincubated for 5 mins followed by substrate addition measured for 60 to 300 secs by Ellman's method
# [8] = Antioxidant activity assessed as DPPH radical scavenging activity at 50 uM relative to control; assay type: functional
# Cholinesterase [9] = biological target: T2, Cholinesterase; assay: Potency index, ratio of donepezil IC50 to test compound IC50 for human BuChE
# [10] = biological target: T1, Amyloid-beta precursor protein; assay: Potency index, ratio of curcumin IC50 to test compound IC50 for HFIP-induced human recombinant amyloid beta (1 to 40 residues) aggregation
# [11] = Potency index, ratio of test compound to resveratrol antioxidant activity assessed as DPPH radical scavenging activity
# [12] = biological target: T1, Amyloid-beta precursor protein; assay: Inhibition of HFIP-induced human recombinant amyloid beta (1 to 40 residues) aggregation expressed in Escherichia coli assessed as reduction in amyloid beta fibril load measured after 24 hrs by ThT fluorescence assay
# [13] = biological target: T1, Amyloid-beta precursor protein; assay: Inhibition of HFIP-induced human recombinant amyloid beta (1 to 40 residues) aggregation expressed in Escherichia coli assessed as reduction in amyloid beta fibril load at 25 uM after 24 hrs by transmission electron microscopic method
# [14] = biological target: T1, Amyloid-beta precursor protein; assay: Potency index, ratio of resveratrol IC50 to test compound IC50 for HFIP-induced human recombinant amyloid beta (1 to 42 residues) aggregation
# [15] = biological target: T1, Amyloid-beta precursor protein; assay: Potency index, ratio of curcumin IC50 to test compound IC50 for HFIP-induced human recombinant amyloid beta (1 to 42 residues) aggregation
# T1 sequence (P05067 whole entry, the tested form may be a part): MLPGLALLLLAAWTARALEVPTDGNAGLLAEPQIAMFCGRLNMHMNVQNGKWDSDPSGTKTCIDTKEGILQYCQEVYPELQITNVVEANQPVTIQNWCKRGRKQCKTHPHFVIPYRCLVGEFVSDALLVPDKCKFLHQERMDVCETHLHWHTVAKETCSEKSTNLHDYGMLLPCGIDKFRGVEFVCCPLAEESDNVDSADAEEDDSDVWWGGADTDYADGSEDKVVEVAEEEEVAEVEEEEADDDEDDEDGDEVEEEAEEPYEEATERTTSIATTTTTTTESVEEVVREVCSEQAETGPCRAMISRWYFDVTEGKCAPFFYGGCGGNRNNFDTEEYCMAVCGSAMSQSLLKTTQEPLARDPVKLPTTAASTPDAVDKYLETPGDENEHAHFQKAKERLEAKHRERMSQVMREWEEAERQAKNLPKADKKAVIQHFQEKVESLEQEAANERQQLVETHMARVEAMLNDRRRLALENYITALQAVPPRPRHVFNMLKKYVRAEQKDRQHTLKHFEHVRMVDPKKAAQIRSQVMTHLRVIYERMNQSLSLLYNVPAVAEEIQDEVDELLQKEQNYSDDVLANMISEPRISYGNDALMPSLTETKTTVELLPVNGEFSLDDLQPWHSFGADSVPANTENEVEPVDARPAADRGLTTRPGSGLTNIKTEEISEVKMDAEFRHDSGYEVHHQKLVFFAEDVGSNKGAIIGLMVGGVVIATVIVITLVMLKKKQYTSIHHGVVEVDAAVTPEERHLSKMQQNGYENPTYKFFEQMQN
# Chain of Acetylcholinesterase (P22303 whole entry): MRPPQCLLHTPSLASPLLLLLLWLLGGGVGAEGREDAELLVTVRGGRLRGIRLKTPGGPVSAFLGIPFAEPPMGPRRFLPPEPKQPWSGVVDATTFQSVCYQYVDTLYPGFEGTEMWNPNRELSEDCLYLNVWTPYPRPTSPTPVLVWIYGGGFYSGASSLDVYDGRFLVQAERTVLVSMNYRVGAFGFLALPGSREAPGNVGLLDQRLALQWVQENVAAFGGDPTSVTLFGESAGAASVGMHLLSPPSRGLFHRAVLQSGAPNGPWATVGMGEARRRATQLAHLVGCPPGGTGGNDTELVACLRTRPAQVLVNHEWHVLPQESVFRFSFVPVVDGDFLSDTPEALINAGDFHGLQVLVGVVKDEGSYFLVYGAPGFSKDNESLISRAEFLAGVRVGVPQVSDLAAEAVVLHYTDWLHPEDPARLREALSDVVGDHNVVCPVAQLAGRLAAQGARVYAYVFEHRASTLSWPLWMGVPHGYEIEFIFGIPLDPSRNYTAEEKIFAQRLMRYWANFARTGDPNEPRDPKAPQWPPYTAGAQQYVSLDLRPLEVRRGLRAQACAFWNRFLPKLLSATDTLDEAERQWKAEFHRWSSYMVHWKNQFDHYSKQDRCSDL
# T2 sequence (P06276 whole entry): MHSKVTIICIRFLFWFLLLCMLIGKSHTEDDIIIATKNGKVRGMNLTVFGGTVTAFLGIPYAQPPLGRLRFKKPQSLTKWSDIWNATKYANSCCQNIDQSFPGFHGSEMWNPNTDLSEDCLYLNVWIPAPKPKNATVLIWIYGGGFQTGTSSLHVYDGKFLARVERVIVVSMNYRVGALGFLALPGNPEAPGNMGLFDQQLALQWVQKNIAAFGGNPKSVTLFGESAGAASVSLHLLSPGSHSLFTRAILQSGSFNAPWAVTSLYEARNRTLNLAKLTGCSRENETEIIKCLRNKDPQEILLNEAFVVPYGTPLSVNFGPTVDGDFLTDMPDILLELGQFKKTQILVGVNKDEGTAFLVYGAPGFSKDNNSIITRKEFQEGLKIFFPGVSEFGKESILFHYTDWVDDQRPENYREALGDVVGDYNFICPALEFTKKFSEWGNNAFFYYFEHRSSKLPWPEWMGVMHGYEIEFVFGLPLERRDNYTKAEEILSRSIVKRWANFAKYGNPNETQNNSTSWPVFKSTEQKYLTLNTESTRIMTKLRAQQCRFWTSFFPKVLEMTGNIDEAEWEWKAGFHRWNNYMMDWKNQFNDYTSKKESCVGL
Compound,inhibition [2],IC50 [3],inhibition [6],IC50 (Acetylcholinesterase),IC50 (Cholinesterase [7]),further results
COc1ccc(CCNc2nc(Cl)nc3ccccc23)cc1OC,> 50%,8.2 µM,,,,inhibition [1]: Active; IC50 [4]: 13 µM; inhibition [5]: Dose-dependent effect
Clc1nc(NCCc2ccccc2)c2ccccc2n1,> 50%,5 µM,36%,,,
CNc1nc(NCc2ccccc2)c2ccccc2n1,,,,8 µM,18.8 µM,
Oc1ccc(/C=C/c2cc(O)cc(O)c2)cc1,,,,,,Activity [8]: 41.9%
Oc1nc(NCCc2ccccc2)c2ccccc2n1,> 50%,11.2 µM,inactive,,,Activity [8]: 51.5%
COc1ccc(CNc2nc(NC(C)C)nc3ccccc23)cc1OC,,,,6.8 µM,29.8 µM,
Clc1nc(NCc2ccccc2)c2ccccc2n1,> 50%,16.7 µM,22%,,,
COc1ccc(CCNc2nc(NC(N)=O)nc3ccccc23)cc1OC,> 50%,14.4 µM,33%,8.7 µM,> 50 µM,
CCCNc1nc(NCc2ccc(OC)c(OC)c2)c2ccccc2n1,> 50%,1.7 µM,inactive,5.6 µM,30.4 µM,
CCCNc1nc(NCCc2ccc(OC)c(OC)c2)c2ccccc2n1,> 50%,4.3 µM,14%,7 µM,24.9 µM,
COc1ccc(CCNc2nc(NC3CC3)nc3ccccc23)cc1OC,> 50%,4.9 µM,25%,7.2 µM,5.6 µM,
CC(C)Nc1nc(NCCc2ccccc2)c2ccccc2n1,> 50%,3.8 µM,inactive,7.2 µM,1.6 µM,Ratio IC50 (Cholinesterase [9]): 2.3
COc1ccc(CCNc2ncnc3ccccc23)cc1OC,> 50%,12 µM,36%,,,
CC(C)Nc1nc(NCc2ccccc2)c2ccccc2n1,> 50%,4.4 µM,13%,6.4 µM,11.7 µM,
COc1ccc(CCNc2nc(NC(C)C)nc3ccccc23)cc1OC,,,,7.6 µM,7.8 µM,
COc1ccc(CCNc2nc(O)nc3ccccc23)cc1OC,> 50%,10.4 µM,32%,,,Activity [8]: 33.9%
NC(=O)Cc1nc(NCc2ccccc2)c2ccccc2n1,,,,7.2 µM,> 50 µM,
[N-]=[N+]=Nc1nc(NCc2ccccc2)c2ccccc2n1,> 50%,2.6 µM,37%,,,
COc1ccc(CCNc2nc(NC(C)=O)nc3ccccc23)cc1OC,,,,7.4 µM,> 50 µM,
COc1ccc(CNc2nc(CC(N)=O)nc3ccccc23)cc1OC,,,,7.4 µM,> 50 µM,
COc1ccc(CNc2nc(NC(C)=O)nc3ccccc23)cc1OC,> 50%,3.1 µM,< 10%,8.5 µM,> 50 µM,
Nc1nc(NCc2ccccc2)c2ccccc2n1,> 50%,,< 10%,,,
COc1ccc(CNc2nc(NC3CCN(Cc4ccccc4)CC3)nc3ccccc23)cc1OC,> 50%,2.3 µM,27%,,,Ratio IC50 [10]: 1.3
COc1ccc(CNc2nc(O)nc3ccccc23)cc1OC,> 50%,7.8 µM,< 10%,,,Ratio [11]: 1.5; Activity [8]: 63.4%
CCCNc1nc(NCc2ccccc2)c2ccccc2n1,> 50%,5 µM,26%,7.8 µM,14.4 µM,
CC(=O)Nc1nc(NCc2ccccc2)c2ccccc2n1,> 50%,1.9 µM,31%,7.5 µM,> 50 µM,

Compound,inhibition [2],IC50 [3],inhibition [6],IC50 (Acetylcholinesterase),IC50 (Cholinesterase [7]),further results
c1ccc(CCNc2ncnc3ccccc23)cc1,> 50%,11.9 µM,32%,,,
c1ccc(CNc2nc(NC3CC3)nc3ccccc23)cc1,> 50%,5.7 µM,31%,6.6 µM,22 µM,
CCNc1nc(NCc2ccccc2)c2ccccc2n1,> 50%,7 µM,24%,7.5 µM,15.2 µM,
CCNc1nc(NCCc2ccccc2)c2ccccc2n1,> 50%,1.4 µM,47%,7.6 µM,3.2 µM,inhibition [12]: Dose-dependent effect; inhibition [13]: Active
COc1ccc(CCNc2nc(CC(N)=O)nc3ccccc23)cc1OC,,,,12.5 µM,> 50 µM,
COc1ccc(CNc2nc(N=[N+]=[N-])nc3ccccc23)cc1OC,> 50%,7.2 µM,< 10%,,,
COc1ccc(CNc2nc(NC3CC3)nc3ccccc23)cc1OC,> 50%,8.3 µM,20%,7.2 µM,29.8 µM,
NC(=O)Cc1nc(NCCc2ccccc2)c2ccccc2n1,,,,7.3 µM,3.5 µM,
Nc1nc(NCc2ccccc2)nc2ccccc12,> 50%,,,,,inhibition [1]: Active; Ratio IC50 [14]: 1.8; Ratio IC50 [10]: 1.2 to 1.4; inhibition [5]: Dose-dependent effect
CC(=O)Nc1nc(NCCc2ccccc2)c2ccccc2n1,,,,7 µM,> 50 µM,
Nc1nc(NCCc2ccccc2)c2ccccc2n1,> 50%,,37%,,,
CNc1nc(NCc2ccc(OC)c(OC)c2)c2ccccc2n1,,,,7.3 µM,30.5 µM,
CCCNc1nc(NCCc2ccccc2)c2ccccc2n1,> 50%,4.4 µM,33%,7.2 µM,5 µM,
CNc1nc(NCCc2ccc(OC)c(OC)c2)c2ccccc2n1,> 50%,6.6 µM,23.1%,8.5 µM,4.5 µM,inhibition [1]: Active; inhibition [5]: Dose-dependent effect
COc1ccc(CNc2nc(NC(N)=O)nc3ccccc23)cc1OC,> 50%,8.3 µM,40%,8.6 µM,> 50 µM,
CCNc1nc(NCCc2ccc(OC)c(OC)c2)c2ccccc2n1,> 50%,2.9 µM,41%,7.5 µM,14 µM,
COc1ccc(CNc2nc(N)nc3ccccc23)cc1OC,> 50%,8.4 µM,34%,,,
COc1ccc(CCNc2nc(N)nc3ccccc23)cc1OC,> 50%,2.7 µM,45%,,,
CCNc1nc(NCc2ccc(OC)c(OC)c2)c2ccccc2n1,,,,6.3 µM,25 µM,
Cc1c(C)c2c(c(C)c1O)CCC(C)(C(=O)O)O2 (configuration not stated),,,,,,Activity [8]: 99.6%
Oc1nc(NCc2ccccc2)c2ccccc2n1,> 50%,0.27 µM,24%,,,Ratio IC50 [14]: 4; Ratio IC50 [15]: 12; Activity [8]: 47%; inhibition [12]: Dose-dependent effect; inhibition [13]: Active
CNc1nc(NCCc2ccccc2)c2ccccc2n1,> 50%,2 µM,40%,8.7 µM,5 µM,
NC(=O)Nc1nc(NCCc2ccccc2)c2ccccc2n1,> 50%,1 µM,46%,7.9 µM,> 50 µM,inhibition [12]: Dose-dependent effect; inhibition [13]: Active
NC(=O)Nc1nc(NCc2ccccc2)c2ccccc2n1,> 50%,13.3 µM,48%,8.3 µM,> 50 µM,
Nc1nc(NCCc2ccccc2)nc2ccccc12,> 50%,,50%,,,inhibition [1]: Active; Ratio IC50 (Cholinesterase [9]): 1.5; inhibition [5]: Dose-dependent effect
c1ccc(CCNc2nc(NC3CC3)nc3ccccc23)cc1,> 50%,0.79 µM,22%,8.6 µM,11.4 µM,inhibition [12]: Dose-dependent effect; Ratio IC50 [10]: 4.1; inhibition [13]: Active
